Among the data in US20090137601A1, “L-Phenylalanine Derivatives” (ASTRAZENECA AB, priority 2005, published 2009) are IC50 values, retold here.

This experiment concerns the target T1, α5β1 integrin (Homo sapiens, UniProt P05556+P08648).
T1 construct: α5β1 integrin mediated adhesion of K562 cells; host or cells: K562 human erythroleukaemia cells (integrin, endogenous); E. coli (Fn9-10 ligand, made in house)
Briefly: In vitro cell adhesion assay: α5β1 integrin mediated adhesion of K562 cells to fibronectin fragment Fn9-10. It counts as cell-based. As to conditions: human K562 erythroleukaemia cells; Fn9-10 coated plates; 0.2 mM MnCl; 45 minutes at 37° C.; crystal violet absorbance at 590 nm. An excerpt: The assay determined the ability of compounds to inhibit the α5β1 integrin mediated adhesion of K562 cells to the ligand, a fragment of human fibronectin. The human K562 erythroleukaemia cell line (LGC Promochem, Teddington, Middlesex, UK, Catalogue No. CCL-243) was routinely maintained in RPMI 1640 medium (Sigma-Aldrich Company Ltd, Gillingham, Dorset SP8 4XT, Catalogue No. R0883) containing 10% heat-inactivated foetal calf serum (PAA lab GmbH, Pasching, Austria Catalogue No. PAA-A15-043) and 1% glutamax-1 (Invitrogen Ltd. Paisley, UK Catalogue No. 35050-038) at 37° C. with 5% CO2 at densities between 1×10^5 and 1×10^6 cells/ml.
A DNA fragment encoding the domains 9-10 (amino-acids 1325-1509) of human fibronectin (Swiss-Prot Accession No. P02751) was isolated from cDNA libraries using standard molecular biology and PCR cloning techniques. The cDNA fragment was sub-cloned into a pT7#3.3 expression vector containing a GST-epitope tag (developed at AstraZeneca; Bagnall et al., Protein Expression and Purification, 2003, 27: 1-11), and the fragment termed Fn9-10. Following expression in E. coli, the expressed protein was purified using the GST-tag using standard purification techniques.
For adhesion assay, a 96-well flat bottomed plate (Greiner Bio one ltd., Gloucester GL10 3SX Catalogue No. 655101) was coated overnight at 4° C. with 100 μl of 20 μg/ml Fn9-10 ligand in Dulbecco's PBS (Gibco #14190-94). The plate was then washed twice with 200 μl of PBS and blocked with 100 μl of 3% BSA (SigmaA7888) in PBS for 1 hour at 37° C. The plates were then washed again 3 times with 200 μl of PBS and left empty. […]
After fixation, the ethanol was flicked off to waste and 100 μl of 0.1% Crystal violet stain was added to each well, and incubated at ambient temperature for 15 minutes. […] Finally, 100 μl of deionised water was added to each well and the absorbance was determined at 590 nm on a spectrophotometer. The minimum value was subtracted from all values, and the absorbance signal was plotted against compound concentration to generate IC50 data.

A value given as a limit tells only on which side of the number the result lay.

T1 sequence (P08648 42-894 limits assumed): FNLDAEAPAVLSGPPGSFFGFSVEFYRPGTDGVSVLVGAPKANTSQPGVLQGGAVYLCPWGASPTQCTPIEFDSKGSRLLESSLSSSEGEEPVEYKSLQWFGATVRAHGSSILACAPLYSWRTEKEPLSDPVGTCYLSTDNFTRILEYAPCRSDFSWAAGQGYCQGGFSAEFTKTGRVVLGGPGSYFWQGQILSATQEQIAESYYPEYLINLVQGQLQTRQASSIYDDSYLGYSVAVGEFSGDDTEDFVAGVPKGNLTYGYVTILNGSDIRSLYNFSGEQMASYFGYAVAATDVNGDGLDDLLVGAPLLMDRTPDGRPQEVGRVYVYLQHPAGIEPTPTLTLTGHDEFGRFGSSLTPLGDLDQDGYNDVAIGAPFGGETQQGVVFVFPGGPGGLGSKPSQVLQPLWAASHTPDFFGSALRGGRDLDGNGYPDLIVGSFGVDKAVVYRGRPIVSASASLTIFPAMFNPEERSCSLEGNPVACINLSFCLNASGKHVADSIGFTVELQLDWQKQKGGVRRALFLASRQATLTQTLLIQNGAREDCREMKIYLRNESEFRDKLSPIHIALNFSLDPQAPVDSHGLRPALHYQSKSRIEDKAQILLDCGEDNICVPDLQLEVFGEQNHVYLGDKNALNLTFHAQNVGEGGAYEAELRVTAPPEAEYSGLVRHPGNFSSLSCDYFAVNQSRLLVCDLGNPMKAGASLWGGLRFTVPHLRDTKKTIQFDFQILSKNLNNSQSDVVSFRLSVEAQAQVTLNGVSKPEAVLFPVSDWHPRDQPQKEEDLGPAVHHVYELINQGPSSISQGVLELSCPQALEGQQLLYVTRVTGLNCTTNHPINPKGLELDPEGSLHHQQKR
T1 sequence (P08648 895-1049 partner limits assumed): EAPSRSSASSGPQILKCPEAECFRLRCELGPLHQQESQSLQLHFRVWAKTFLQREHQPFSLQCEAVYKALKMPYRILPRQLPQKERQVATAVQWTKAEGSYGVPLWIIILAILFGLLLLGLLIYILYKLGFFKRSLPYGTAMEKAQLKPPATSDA
T1 sequence (P05556 21-798): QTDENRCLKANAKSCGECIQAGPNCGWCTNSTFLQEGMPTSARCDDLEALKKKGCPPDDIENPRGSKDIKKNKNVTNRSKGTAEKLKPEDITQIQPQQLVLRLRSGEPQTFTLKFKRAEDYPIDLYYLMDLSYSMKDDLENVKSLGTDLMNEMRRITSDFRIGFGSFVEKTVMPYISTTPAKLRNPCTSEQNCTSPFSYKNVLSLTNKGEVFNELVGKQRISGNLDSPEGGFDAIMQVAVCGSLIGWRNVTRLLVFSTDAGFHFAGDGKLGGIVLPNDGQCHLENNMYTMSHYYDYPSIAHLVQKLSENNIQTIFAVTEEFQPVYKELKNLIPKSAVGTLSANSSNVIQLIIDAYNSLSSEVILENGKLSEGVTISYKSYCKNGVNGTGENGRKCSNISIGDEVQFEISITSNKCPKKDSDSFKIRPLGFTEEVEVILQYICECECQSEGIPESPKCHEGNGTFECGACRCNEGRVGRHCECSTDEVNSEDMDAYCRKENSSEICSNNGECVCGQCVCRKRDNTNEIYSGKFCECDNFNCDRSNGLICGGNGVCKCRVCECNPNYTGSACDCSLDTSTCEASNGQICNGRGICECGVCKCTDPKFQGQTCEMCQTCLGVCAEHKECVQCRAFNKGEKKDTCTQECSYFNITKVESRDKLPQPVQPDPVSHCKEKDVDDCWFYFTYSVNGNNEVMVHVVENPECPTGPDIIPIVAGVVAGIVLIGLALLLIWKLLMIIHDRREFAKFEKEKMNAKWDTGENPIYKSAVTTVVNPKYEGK

Consider `COc1cccc(CN2CCC(c3ccc(C[C@H](NC(=O)c4c(Cl)cccc4Cl)C(=O)O)cc3)CC2)c1` [N-(2,6-dichlorobenzoyl)-4-[1-(3-methoxybenzyl)piperidin-4-yl]-L-phenylalanine], for which the 50% inhibitory concentration (IC50) is at least 30 µM.

`Cc1cccc(Cl)c1C(=O)N[C@@H](Cc1ccc(C2=CCN(Cc3ccc(F)cc3)CC2)cc1)C(=O)O` [N-(2-chloro-6-methylbenzoyl)-4-[1-(4-fluorobenzyl)-1,2,3,6-tetrahydropyridin-4-yl]-L-phenylalanine] showed a 50% inhibitory concentration (IC50) of at least 30 µM.

Consider `O=C(N[C@@H](Cc1ccc(C2CCN(Cc3ccccc3F)CC2)cc1)C(=O)O)c1c(Cl)cccc1Cl` [N-(2,6-dichlorobenzoyl)-4-[1-(2-fluorobenzyl)piperidin-4-yl]-L-phenylalanine], for which the IC50 is at least 30 µM.
